The record followed here is ChEMBL document CHEMBL1139849, “Antifungal acylcyclopentenediones from fruiting bodies of Hygrophorus chrysodon” (2007).

Format in all cases: functional
What all share (details): read-out: IZ

Assay [1] has as its system Fusarium verticillioides. Description: Antifungal activity against Fusarium verticillioides Nirenberg (Sacc.) by agar diffusion method at 50 ug.
The test system of assay [2] is Fusarium verticillioides. In words: Antifungal activity against Fusarium verticillioides Nirenberg (Sacc.) by agar diffusion method at 100 ug. In general terms: A growth-free zone around the sample is the usual read-out of agar diffusion tests.
The subject of assay [3] is Fusarium verticillioides. Description: Antifungal activity against Fusarium verticillioides Nirenberg (Sacc.) by agar diffusion method at 300 ug.

On to `C=CCCCCCCCCC(O)=C1C(=O)C=CC1=O` [CHRYSOTRIONE A], for which the zone of inhibition at 50 µg/disc in assay [1] worked out at 3 mm. In assay [2], the zone of inhibition at 100 µg/disc turned out to be 10 mm. Further, the zone of inhibition at 300 µg/disc in assay [3] stood at 35 mm.

As to `CCCCCCCCCCC(O)=C1C(=O)C=CC1=O` [CHRYSOTRIONE B], in assay [1], the zone of inhibition at 50 µg/disc was found to be 3 mm. In addition, the zone of inhibition at 100 µg/disc in assay [2] came out at 15 mm. Also, in assay [3], the zone of inhibition at 300 µg/disc was found to be 18 mm.

`Cc1cc(C2CCCCC2)n(O)c(=O)c1` [CICLOPIROX]: the zone of inhibition at 50 µg/disc in assay [1] is 25 mm.
